The text below walks through data of paper PMC12030627, “Radioiodinated Bicyclic RGD Peptide Derivatives for Enhanced Tumor Accumulation” (Pharmaceuticals, 2025).

“And” between values parts separate entries of the source, which are not always exact repeats. Equal entries are not always repeated. Starred links: 1 amine or outer side, 2 acyl side, 3 side chain; linkers in the order of their positions; H or OH if unused. Positions of bridges follow the written chain, without caps; N, C: chain ends. Non-standard residues stand in square brackets, D forms with d. Residues, ends and D or L forms follow the SMILES beside them. *: point of attachment. Butanoyl(4-(4-I-phenyl)) = O=C(CCCc1ccc(I)cc1)*; TBMB = c1c(C[*:1])cc(C[*:3])cc1C[*:2]; Palmitoyl = CCCCCCCCCCCCCCCC(=O)*; Benzoyl(3-I) = O=C(c1cccc(I)c1)*; 4Abz = Nc1ccc(C(=O)O)cc1

Data set [1] concerns the target T1, human serum albumin (HSA) (Homo sapiens, UniProt P02768).
T1 construct: purchased Wako Pure Chemical Industries
The data set can be described thus: Albumin binding, size-exclusion spin column elution after incubation with HSA. Format: in vitro ADME. The conditions noted are these: 37 kBq in 50 μL PBS(–) incubated 37 °C 10 min with 200 μL HSA 45 mg/mL in PBS(–); Sephadex G-50 Fine spin column, 2000 rpm 2 min; γ-counter; eluted/added radioactivity × 100. Here is the method:
(§1) To assess albumin binding, mouse plasma was obtained by centrifugation of whole blood from male ddY mice (9 weeks old). [^125I]bcRGD, [^125I]bcRGDpal, [^125I]bcRGDiba, or [^125I]bcRGDdimer (37 kBq) in 50 μL PBS(–) was incubated at 37 °C for 10 min with 200 μL of PBS(–), mouse plasma, or human serum albumin (HSA, 45 mg/mL in PBS(–); Wako Pure Chemical Industries, Osaka, Japan). The mixtures were applied to gel filtration spin columns (Sephadex G-50 Fine; Cytiva, Tokyo, Japan), centrifuged (2000 rpm, 2 min), and radioactivity in the eluted fraction was measured with a γ-counter. The high molecular weight fraction was calculated as the elution ratio = (radioactivity in elution)/(added radioactivity) × 100 (%).
(Size exclusion chromatography separates by hydrodynamic size, large species first.)

Data set [2] in a line: Octanol–water distribution coefficient (log D). Format: physicochemical. The conditions noted are these: shake-flask 1-octanol/PBS(–) pH 7.4, 1.0 mL each (1:1), 40 kBq, vortexed 2 min, centrifuged 5000 rpm 5 min, radioactivity by γ-counter, mean of n = 4. On the procedure:
For log D determination, [^125I]bcRGD, [^125I]bcRGDpal, [^125I]bcRGDiba, or [^125I]bcRGDdimer (40 kBq) was dissolved in 1.0 mL PBS(–) (pH 7.4) and mixed with 1.0 mL 1-octanol (1:1, v/v). The mixture was vortexed for 2 min and centrifuged at 5000 rpm for 5 min. Radioactivity in 0.5 mL of each phase was measured using a γ-counter, and log D values were calculated based on the radioactivity distribution (n = 4).

Data set [3] in a line: Albumin binding, size-exclusion spin column elution after incubation with mouse plasma. The conditions noted are these: 37 kBq in 50 μL PBS(–) incubated 37 °C 10 min with 200 μL mouse plasma (male ddY); Sephadex G-50 Fine spin column, 2000 rpm 2 min; γ-counter; eluted/added radioactivity × 100. It is filed as in vitro ADME. Here is the method:
as §1

The subject of the next data set is U-87 MG-bearing mice. The data set can be described thus: Biodistribution in U-87 MG tumor-bearing mice. Format: in vivo, BALB/c nu-nu mice. To be noted: U-87 MG-bearing mice, mean ± SD, n = 3. Here is the method:
Animal experiments were performed in compliance with institutional animal care regulations, with the study protocol approved by the Experimental Animal Committee of Osaka Medical and Pharmaceutical University (Approval Numbers: 21–76, 22–76, and 23–76). Four-week-old male BALB/c nu-nu mice (Japan SLC, Shizuoka, Japan) were housed under a 12 h light/12 h dark cycle with free access to food and water. Tumor-bearing mice were established by suspending U-87 MG cells (2 × 10^6 cells/mouse) in PBS(–) and subcutaneously injecting 100 μL of the suspension into the right hind leg. For co-implantation models, A549 cells (2 × 10^6 cells/mouse) were suspended in PBS(–) and inoculated (100 μL) into the left hind leg of the same mice already inoculated with U-87 MG cells. Mice with tumor size approximately 10 mm in diameter, 4–5 weeks after inoculation, were used for biodistribution studies. Animals in which either tumor was not viable were excluded from the experiment.
U-87 MG-bearing mice (n = 42, 8–9 weeks old; 22–27 g) were randomly assigned into groups and administered [^125I]bcRGDpal or [^125I]bcRGDiba via intravenous injection (37 kBq in 100 μL of PBS containing 0.1% Tween 80 (PBS-T80)). At 5 min, 30 min, 1 h, 2 h, 6 h, 12 h, or 24 h post-injection, the mice were euthanized (n = 3 per time point). The heart, kidneys, liver, brain, pancreas, spleen, lung, small intestine, large intestine, muscle, skin, stomach, bone, and tumors were excised. Each organ’s weight and radioactivity were measured by a NaI well-type scintillation counter, and the % ID/g was calculated. To investigate the correlation between integrin expression and radioactivity accumulation, biodistribution at 2 h after administration of [^125I]bcRGDpal or [^125I]bcRGDiba was assessed in A549 and U-87 MG co-implantation mice (n = 5) using the same procedure. Additionally, co-implantation mice were injected with [^125I]bcRGDdimer (37 kBq/100 μL PBS-T80) and euthanized at 30 min, 2 h, and 4 h post-injection (n = 4 per time point), and % ID/g values were calculated as described above. The minimum sample size needed for the biodistribution study in U-87 MG-bearing mice was calculated using G Power software version 3.1.9.7. The calculation was based on a two-tailed test, with an effect size of 3.9, a significance level (α) of 0.05, and a statistical power (1 − β) of 0.8. […] The minimum required sample size for the biodistribution study in A549 and U-87 MG co-implantation mice was also calculated to be four animals per group (effect size = 2.5, α = 0.05, 1 − β = 0.8). To guarantee objective results, the experiment was carried out in a blinded manner. Specifically, drug administration and radioactivity measurements were conducted by different investigators to eliminate potential bias.

Setting [4] is: 5 min after i.v. administration.
[5] abbreviates: 30 min after i.v. administration.

T1 sequence (P02768 25-609): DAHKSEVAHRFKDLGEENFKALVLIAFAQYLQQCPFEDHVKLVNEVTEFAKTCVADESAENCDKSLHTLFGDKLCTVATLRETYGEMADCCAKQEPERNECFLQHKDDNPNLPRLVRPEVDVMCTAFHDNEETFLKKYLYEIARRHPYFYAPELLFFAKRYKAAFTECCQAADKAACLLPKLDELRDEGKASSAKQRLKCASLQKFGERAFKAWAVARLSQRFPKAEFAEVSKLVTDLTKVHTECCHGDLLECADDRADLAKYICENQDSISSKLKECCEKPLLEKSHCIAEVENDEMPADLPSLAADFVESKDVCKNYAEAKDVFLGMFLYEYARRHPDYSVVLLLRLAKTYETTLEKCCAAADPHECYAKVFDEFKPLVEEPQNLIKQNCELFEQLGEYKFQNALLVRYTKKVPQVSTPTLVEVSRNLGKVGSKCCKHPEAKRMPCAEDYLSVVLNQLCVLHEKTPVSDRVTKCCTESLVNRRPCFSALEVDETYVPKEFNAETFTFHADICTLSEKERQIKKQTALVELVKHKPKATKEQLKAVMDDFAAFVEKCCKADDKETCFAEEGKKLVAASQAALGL

One may read the logD as the decadic logarithm of the distribution of all forms, ionised or not, between an organic phase and buffer at a given pH. Consider `N=C(N)NCCC[C@@H]1NC(=O)[C@H]2CSCc3cc(cc(c3)CSC[C@H](C(N)=O)NC(=O)[C@H](CC(=O)O)NC(=O)CNC1=O)CSC[C@H](NC(=O)CNC(=O)[C@H](CO)NC(=O)c1ccc(NC(=O)CNC(=O)[C@H](CO)NC(=O)[C@@H]3CCCN3C(=O)[C@@H]3CCCN3C(=O)[C@@H]3CCCN3C(=O)CCc3cn(CC[C@H](NC(=O)CCNC(=O)c4cccc(I)c4)C(=O)N4CCC[C@H]4C(=O)N4CCC[C@H]4C(=O)N4CCC[C@H]4C(=O)N[C@@H](CO)C(=O)NCC(=O)Nc4ccc(C(=O)N[C@@H](CO)C(=O)NCC(=O)N[C@H]5CSCc6cc7cc(c6)CSC[C@@H](NC(=O)[C@H](CCC(N)=O)NC(=O)[C@@H]6CCCN6C(=O)[C@H](Cc6c[nH]cn6)NC5=O)C(=O)N[C@@H](CCCNC(=N)N)C(=O)NCC(=O)N[C@@H](CC(=O)O)C(=O)N[C@@H](C(N)=O)CSC7)cc4)nn3)cc1)C(=O)N[C@@H](Cc1c[nH]cn1)C(=O)N1CCC[C@H]1C(=O)N[C@@H](CCC(N)=O)C(=O)N2` [[^125I]bcRGDdimer], for which the “Elution rate from size-exclusion resin (high molecular weight fraction), HSA” value in data set [1] worked out at 6%. In data set [2], the log distribution coefficient (logD) is -1.98. The “Elution rate from size-exclusion resin (high molecular weight fraction), mouse plasma” value in data set [3] worked out at 22%.
With `N=C(N)NCCC[C@@H]1NC(=O)[C@H]2CSCc3cc(cc(c3)CSC[C@H](C(N)=O)NC(=O)[C@H](CC(=O)O)NC(=O)CNC1=O)CSC[C@H](NC(=O)CNC(=O)[C@H](CO)NC(=O)c1ccc(NC(=O)CNC(=O)[C@H](CO)NC(=O)[C@@H]3CCCN3C(=O)[C@@H]3CCCN3C(=O)[C@@H]3CCCN3C(=O)[C@H](CCCCNC(=O)c3cccc(I)c3)NC(=O)CCCc3ccc(I)cc3)cc1)C(=O)N[C@@H](Cc1c[nH]cn1)C(=O)N1CCC[C@H]1C(=O)N[C@@H](CCC(N)=O)C(=O)N2` [[^125I]bcRGDiba] ({Butanoyl(4-(4-I-phenyl))}-K(Benzoyl(3-I))PPPSG[4Abz]SGCHPQ[dC]RGD[dC]-NH2; linker 10-14-18 via TBMB), the “Elution rate from size-exclusion resin (high molecular weight fraction), HSA” value in data set [1] was determined as 60%. Moreover, the logD in data set [2] was -0.97. Moreover, the “Elution rate from size-exclusion resin (high molecular weight fraction), mouse plasma” value in data set [3] is given as above 80%. Further, the U87/Blood radioactivity ratio stood at 0.1 ± 0.0 in the data set on U-87 MG-bearing mice (setting [4]); 0.2 ± 0.0 in the data set on U-87 MG-bearing mice (setting [5]); 0.2 ± 0.0 in the data set with U-87 MG-bearing mice (1 h after i.v. administration); 0.3 ± 0.0 in the data set on U-87 MG-bearing mice (2 h after i.v. administration); 0.3 ± 0.0 with U-87 MG-bearing mice (6 h after i.v. administration); 0.4 ± 0.1 in the data set with U-87 MG-bearing mice (12 h after i.v. administration). For the same compound, the U87/Blood radioactivity ratio in the data set on U-87 MG-bearing mice (24 h after i.v. administration) is reported as 0.4 ± 0.1. Also, the U87/Muscle radioactivity ratio with U-87 MG-bearing mice (setting [4]) worked out at 1.6 ± 0.3; in the data set on U-87 MG-bearing mice (setting [5]), 2.3 ± 0.6; in the data set with U-87 MG-bearing mice (1 h after i.v. administration), 2.3 ± 0.4; in the data set with U-87 MG-bearing mice (2 h after i.v. administration) it was 2.4 ± 0.3; in the data set with U-87 MG-bearing mice (6 h after i.v. administration), 2.5 ± 0.3; in the data set with U-87 MG-bearing mice (12 h after i.v. administration), 2.6 ± 0.3. In addition, the U87/Muscle radioactivity ratio in the data set on U-87 MG-bearing mice (24 h after i.v. administration) was found to be 2.1 ± 0.4. In addition, the Radioactivity in thyroid in the data set on U-87 MG-bearing mice (12 h after i.v. administration) and in the data set with U-87 MG-bearing mice (24 h after i.v. administration) was 0.0 ± 0.0 % injected dose in each case. The “Radioactivity in U-87 MG tumor” value in the data set on U-87 MG-bearing mice (24 h after i.v. administration) worked out at 0.5 % ID/g. The Radioactivity in brain in the data set with U-87 MG-bearing mice (24 h after i.v. administration) is listed as 0.0 ± 0.0 % injected dose per gram of tissue.
Turning to `CCCCCCCCCCCCCCCC(=O)N[C@@H](CCCCNC(=O)c1cccc(I)c1)C(=O)N1CCC[C@H]1C(=O)N1CCC[C@H]1C(=O)N1CCC[C@H]1C(=O)N[C@@H](CO)C(=O)NCC(=O)Nc1ccc(C(=O)N[C@@H](CO)C(=O)NCC(=O)N[C@H]2CSCc3cc4cc(c3)CSC[C@@H](NC(=O)[C@H](CCC(N)=O)NC(=O)[C@@H]3CCCN3C(=O)[C@H](Cc3c[nH]cn3)NC2=O)C(=O)N[C@@H](CCCNC(=N)N)C(=O)NCC(=O)N[C@@H](CC(=O)O)C(=O)N[C@@H](C(N)=O)CSC4)cc1` [[^125I]bcRGDpal] (Palmitoyl-K(Benzoyl(3-I))PPPSG[4Abz]SGCHPQ[dC]RGD[dC]-NH2; linker 10-14-18 via TBMB), the “Elution rate from size-exclusion resin (high molecular weight fraction), HSA” value in data set [1] is listed as 80%. In addition, in data set [2], the logD was 1.71 and > 1. For the same compound, the “Elution rate from size-exclusion resin (high molecular weight fraction), mouse plasma” value in data set [3] is above 80%. The U87/Blood radioactivity ratio in the data set with U-87 MG-bearing mice (setting [4]) is 0.1 ± 0.0; in the data set on U-87 MG-bearing mice (setting [5]), 0.3 ± 0.0; with U-87 MG-bearing mice (1 h after i.v. administration) it was 0.4 ± 0.1; in the data set with U-87 MG-bearing mice (2 h after i.v. administration) it was 0.5 ± 0.0; in the data set with U-87 MG-bearing mice (6 h after i.v. administration), 0.5 ± 0.1; in the data set on U-87 MG-bearing mice (12 h after i.v. administration), 0.4 ± 0.0. Besides, in the data set on U-87 MG-bearing mice (24 h after i.v. administration), the U87/Blood radioactivity ratio is reported as 0.5 ± 0.1. Also, the U87/Muscle radioactivity ratio with U-87 MG-bearing mice (setting [5]) came out at 2.1 ± 0.3; in the data set on U-87 MG-bearing mice (1 h after i.v. administration), 2.9 ± 0.2; in the data set with U-87 MG-bearing mice (2 h after i.v. administration), 3.7 ± 0.4; in the data set on U-87 MG-bearing mice (6 h after i.v. administration), 3.3 ± 0.8; in the data set on U-87 MG-bearing mice (12 h after i.v. administration), 3.4 ± 0.5; with U-87 MG-bearing mice (24 h after i.v. administration), 2.4 ± 0.4. In addition, the Radioactivity in thyroid with U-87 MG-bearing mice (12 h after i.v. administration) and in the data set with U-87 MG-bearing mice (24 h after i.v. administration) was 0.0 ± 0.0 % injected dose in each case. For the same compound, in the data set on U-87 MG-bearing mice (24 h after i.v. administration), the “Radioactivity in U-87 MG tumor” value is on record as 0.3 % ID/g. The Radioactivity in brain in the data set on U-87 MG-bearing mice (24 h after i.v. administration) is 0.0 ± 0.0 % injected dose per gram of tissue.
